Here are results for 1 compound from patent publication US6548540B2, “Method of treating cancer using dithiocarbamate derivatives” (Charlotte-Mecklenburg Hospital Authority, priority 1998, dated 2003).

The experiment concerns transcription factor binding to CRE (cyclic AMP response element). The experiment is described as follows: EMSA of nuclear protein from treated M1619 cells, binding to CRE. In kind it is cell-based, human. On the procedure: This dose was chosen to approximate the steady state plasma and tissue concentrations of drug in human subjects on chronic therapy with this agent. Disulfiram was solubilized in dimethylsulfoxide (DMSO) so that the final concentration of DMSO was less than 0.3-0.5%. Equal volumes of DMSO were added to control experiments. Nuclear protein was harvested and electrophoretic mobility gel shift assays were performed using DNA consensus binding sequence for the cyclic-AMP responsive element (CRE) as outlined below. […] Nuclear protein was isolated and DNA binding reactions were performed as previously described in detail (See, […], et al., “Dehydroepiandrosterone and analogs inhibit DNA binding of AP-1 and airway smooth muscle proliferation,” J. Pharmacol. Exper. Ther. 285:[…] (1998); T. Kennedy, et al., “Copper-dependent inflammation and nuclear factor-κB activation by particulate air pollution,” Am. J. Respir. Cell Mol. Biol. 19:366-378 (1998)). Monolayers were washed twice in cold DPBS and equilibrated 10 minutes on ice with 0.7 ml cold cytoplasmic extraction buffer, CEB (10 mM Tris, pH 7.9, 60 mM KCl, 1 mM EDTA, 1 mM DTT) with protease inhibitors, PI (1 mM Pefabloc, 50 μg/ml antipain, 1 μg/ml leupeptin, 1 μg/ml pepstatin, 40 μg/ml bestatin, 3 μg/ml E-64 and 100 μg/ml chymostatin). The detergent Nonidet P-40 (NP-40) was added to a final concentration of 0.1% and cells were dislodged with a cell scraper. Nuclei were pelleted by centrifugation and washed with CEB/PI. […] DNA-protein binding reactions were performed with 2 μg of nuclear protein (as determined by the Pierce method) and 30-80,000 cpm of ^32P-end-labelled double-stranded DNA probe in 10 mM Tris-HCl, pH 7.5, 50 mM NaCl, 0.5 mM EDTA, 0.5 mM DTT (except where indicated), 1 mM MgCl2, 50 μg/ml poly dI-dC, and 4% glycerol. […] Gels were dried and analyzed by autoradiography at -80° C. using an image intensifier screen. […]
(In EMSA bound probe runs differently from free probe, usually more slowly.)

Structures are written as SMILES. “Also recorded” adds a separate entry of the source.

`CCN(CC)C(=S)SSC(=S)N(CC)CC` [Disulfiram, tetraethylthiuram disulfide]: the “DNA-binding to CRE” value (5 μM disulfiram alone, treated cells) is recorded as “slightly reduced”. For the same compound, the “transcription factor binding to CRE” value (5 μM disulfiram and 1.6 μM cupric sulfate, cells treated 6, 12 or 24 hour) was “substantially interrupts; also recorded: eliminated”. Where the note is “disulfiram 5 μM plus CuSO4 1.6 μM, 8 hours, n=4”, the “DNA binding of the upper ATF-2 containing complex II (densitometry)” value is recorded as “by half”.
